According to ChEMBL document CHEMBL1201862, “PubChem BioAssay data set” (2004):
Activity calls are given as the source filed them.

Columns and labels:
Format in all cases: functional
[1] = biological target: T1, Sentrin-specific protease 6 (Homo sapiens, UniProt Q9GZR1); assay: SAR Analysis of small molecule inhibitors of Sentrin-specific protease 6 (SENP6) using a Luminescent assay. [Related pubchem assays (depositor defined):AID2582, AID2599]
T1 sequence (Q9GZR1 whole entry): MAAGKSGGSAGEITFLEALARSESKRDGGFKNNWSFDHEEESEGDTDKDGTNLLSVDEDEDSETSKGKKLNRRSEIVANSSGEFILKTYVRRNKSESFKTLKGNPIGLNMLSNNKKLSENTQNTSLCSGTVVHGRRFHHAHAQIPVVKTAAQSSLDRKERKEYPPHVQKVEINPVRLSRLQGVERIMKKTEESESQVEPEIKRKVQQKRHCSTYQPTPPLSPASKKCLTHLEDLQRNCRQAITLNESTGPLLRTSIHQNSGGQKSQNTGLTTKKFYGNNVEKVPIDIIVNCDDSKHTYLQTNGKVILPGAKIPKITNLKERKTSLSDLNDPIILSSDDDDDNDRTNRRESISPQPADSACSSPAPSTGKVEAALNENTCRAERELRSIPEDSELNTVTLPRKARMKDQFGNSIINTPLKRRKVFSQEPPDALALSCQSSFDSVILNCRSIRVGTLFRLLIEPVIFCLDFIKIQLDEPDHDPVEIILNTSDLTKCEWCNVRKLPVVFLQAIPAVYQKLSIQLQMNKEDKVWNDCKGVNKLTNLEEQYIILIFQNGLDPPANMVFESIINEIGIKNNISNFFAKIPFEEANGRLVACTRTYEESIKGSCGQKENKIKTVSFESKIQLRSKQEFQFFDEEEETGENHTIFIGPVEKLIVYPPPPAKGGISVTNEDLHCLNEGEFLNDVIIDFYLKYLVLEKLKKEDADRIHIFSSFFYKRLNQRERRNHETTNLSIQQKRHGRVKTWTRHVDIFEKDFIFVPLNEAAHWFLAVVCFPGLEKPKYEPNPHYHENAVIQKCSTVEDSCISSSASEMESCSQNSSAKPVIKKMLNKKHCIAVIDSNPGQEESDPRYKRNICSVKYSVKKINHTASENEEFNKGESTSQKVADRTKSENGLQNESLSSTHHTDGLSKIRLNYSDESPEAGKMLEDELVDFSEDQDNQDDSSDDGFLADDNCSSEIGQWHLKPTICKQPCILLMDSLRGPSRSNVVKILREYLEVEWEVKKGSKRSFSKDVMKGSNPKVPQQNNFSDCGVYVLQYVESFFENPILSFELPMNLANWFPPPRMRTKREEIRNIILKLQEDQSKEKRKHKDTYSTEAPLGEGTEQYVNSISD

[2] = biological target: Macrophage colony-stimulating factor 1 receptor (Homo sapiens, UniProt P07333);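 note: value comes from the Navigating the Kinome screening panel, CSF1R member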
[3] = biological target: Serine/threonine-protein kinase 17A (Homo sapiens, UniProt Q9UEE5)
[4] = biological target: Cyclin-dependent kinase 7 (Homo sapiens, UniProt P50613);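 note: value comes from a kinome-wide kinase profiling panel in which CDK7 is one member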
Sequence of Cyclin-dependent kinase 7 (P50613 whole entry): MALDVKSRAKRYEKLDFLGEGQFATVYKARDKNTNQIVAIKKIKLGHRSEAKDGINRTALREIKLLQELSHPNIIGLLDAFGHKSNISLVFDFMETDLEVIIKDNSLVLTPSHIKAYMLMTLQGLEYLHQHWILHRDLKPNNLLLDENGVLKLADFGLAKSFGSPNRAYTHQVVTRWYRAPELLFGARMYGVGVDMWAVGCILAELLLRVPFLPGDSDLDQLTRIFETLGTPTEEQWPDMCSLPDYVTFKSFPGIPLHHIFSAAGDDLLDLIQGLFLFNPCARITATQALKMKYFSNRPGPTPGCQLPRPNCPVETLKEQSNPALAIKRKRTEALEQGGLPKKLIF

Sequence of Macrophage colony-stimulating factor 1 receptor (P07333 whole entry): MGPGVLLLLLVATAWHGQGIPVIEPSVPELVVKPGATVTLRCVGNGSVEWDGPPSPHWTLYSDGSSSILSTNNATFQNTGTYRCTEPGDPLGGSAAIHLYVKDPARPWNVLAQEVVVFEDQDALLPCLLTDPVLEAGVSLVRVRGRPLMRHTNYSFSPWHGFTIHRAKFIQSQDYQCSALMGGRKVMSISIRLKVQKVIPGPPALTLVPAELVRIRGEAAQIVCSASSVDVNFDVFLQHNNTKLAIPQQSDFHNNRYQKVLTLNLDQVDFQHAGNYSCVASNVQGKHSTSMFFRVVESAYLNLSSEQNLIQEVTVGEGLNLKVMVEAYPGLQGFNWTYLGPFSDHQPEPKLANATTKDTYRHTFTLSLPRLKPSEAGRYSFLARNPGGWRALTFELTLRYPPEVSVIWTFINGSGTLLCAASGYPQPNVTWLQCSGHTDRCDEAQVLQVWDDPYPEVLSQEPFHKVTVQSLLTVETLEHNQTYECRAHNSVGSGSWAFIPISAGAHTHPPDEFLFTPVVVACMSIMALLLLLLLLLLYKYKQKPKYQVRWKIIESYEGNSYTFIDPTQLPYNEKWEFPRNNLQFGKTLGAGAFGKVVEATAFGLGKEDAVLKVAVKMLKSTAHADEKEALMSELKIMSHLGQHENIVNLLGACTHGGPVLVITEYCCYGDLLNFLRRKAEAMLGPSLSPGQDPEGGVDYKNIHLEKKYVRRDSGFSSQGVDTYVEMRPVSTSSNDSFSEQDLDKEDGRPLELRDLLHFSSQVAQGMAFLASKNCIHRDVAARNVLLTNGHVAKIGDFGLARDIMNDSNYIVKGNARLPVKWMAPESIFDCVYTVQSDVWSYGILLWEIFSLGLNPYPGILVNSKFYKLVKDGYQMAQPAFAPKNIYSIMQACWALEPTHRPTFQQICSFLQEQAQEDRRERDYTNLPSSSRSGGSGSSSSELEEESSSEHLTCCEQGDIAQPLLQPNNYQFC
Sequence of Serine/threonine-protein kinase 17A (Q9UEE5 whole entry): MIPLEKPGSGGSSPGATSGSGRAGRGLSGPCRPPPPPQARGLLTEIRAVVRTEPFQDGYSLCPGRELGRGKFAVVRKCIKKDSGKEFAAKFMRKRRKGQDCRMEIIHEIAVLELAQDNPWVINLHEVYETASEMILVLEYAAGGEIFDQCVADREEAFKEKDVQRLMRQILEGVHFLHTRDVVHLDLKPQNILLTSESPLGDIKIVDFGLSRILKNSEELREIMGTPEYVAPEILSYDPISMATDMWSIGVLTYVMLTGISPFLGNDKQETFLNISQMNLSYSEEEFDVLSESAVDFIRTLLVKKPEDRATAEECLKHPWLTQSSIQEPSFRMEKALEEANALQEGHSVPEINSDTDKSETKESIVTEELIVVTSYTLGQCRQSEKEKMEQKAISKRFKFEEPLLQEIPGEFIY

Row | SMILES | IC50 [1] | Ki [2] | Ki [3] | Ki [4]
1 | COc1cc(Br)c(C(=O)c2nccc3cc(OC)c(OC)cc23)cc1OC | 14.3 µM (active) | – | – | –
2 | CC(N)C1CCC(C(=O)Nc2ccnc3[nH]ccc23)CC1 (centres undefined) | – | > 2.51 µM (inactive) | 3.98 µM (active) | 1 µM (active)
